Assay results as given in ChEMBL document CHEMBL4507267 (2021).

What was measured:
[1] = molecular target: RAF proto-oncogene serine/threonine-protein kinase (Homo sapiens) (UniProt P04049); conditions: Compound concentration 1000.0 nM
[2] = molecular target: Receptor tyrosine-protein kinase erbB-4 (Homo sapiens) (UniProt Q15303); conditions: Compound concentration 1000.0 nM
[3] = molecular target: Dual specificity mitogen-activated protein kinase kinase 2 (Homo sapiens) (UniProt P36507); conditions: Compound concentration 1000.0 nM
[4] = molecular target: Alpha-2C adrenergic receptor (Homo sapiens) (UniProt P18825); conditions: Compound concentration 10.0 uM
[5] = molecular target: Serine/threonine-protein kinase RIO3 (Homo sapiens) (UniProt O14730); conditions: Compound concentration 1000.0 nM
[6] = molecular target: Serine/threonine-protein kinase STK11 (Homo sapiens) (UniProt Q15831); conditions: Compound concentration 1000.0 nM
[7] = molecular target: Dual specificity protein kinase TTK (Homo sapiens) (UniProt P33981); conditions: Compound concentration 1000.0 nM
[8] = test system: Hepatocyte growth factor receptor (Homo sapiens), P08581 [M1250T]; conditions: Compound concentration 1000.0 nM
[9] = molecular target: Serine/threonine-protein kinase MRCK beta (Homo sapiens) (UniProt Q9Y5S2); conditions: Compound concentration 1000.0 nM
[10] = molecular target: Interleukin-1 receptor-associated kinase 4 (Homo sapiens) (UniProt Q9NWZ3); conditions: Compound concentration 1000.0 nM
[11] = molecular target: Receptor tyrosine-protein kinase erbB-3 (Homo sapiens) (UniProt P21860); conditions: Compound concentration 1000.0 nM
[12] = molecular target: cAMP-dependent protein kinase catalytic subunit PRKX (Homo sapiens) (UniProt P51817); conditions: Compound concentration 1000.0 nM
[13] = molecular target: 5-hydroxytryptamine receptor 6 (Homo sapiens) (UniProt P50406); conditions: Compound concentration 10.0 uM
[14] = molecular target: Activin receptor type-1-like (Homo sapiens) (UniProt P37023); conditions: Compound concentration 1000.0 nM
[15] = molecular target: MAP kinase-interacting serine/threonine-protein kinase 2 (Homo sapiens) (UniProt Q9HBH9); conditions: Compound concentration 1000.0 nM
[16] = molecular target: Serine/threonine-protein kinase D2 (Homo sapiens) (UniProt Q9BZL6); conditions: Compound concentration 1000.0 nM
[17] = molecular target: Serine/threonine-protein kinase PAK 2 (Homo sapiens) (UniProt Q13177); conditions: Compound concentration 1000.0 nM
[18] = molecular target: Myosin light chain kinase 2, skeletal/cardiac muscle (Homo sapiens) (UniProt Q9H1R3); conditions: Compound concentration 1000.0 nM
[19] = molecular target: LIM domain kinase 2 (Homo sapiens) (UniProt P53671); conditions: Compound concentration 1000.0 nM
[20] = molecular target: Tyrosine-protein kinase Srms (Homo sapiens) (UniProt Q9H3Y6); conditions: Compound concentration 1000.0 nM
[21] = molecular target: Serine/threonine-protein kinase TNNI3K (Homo sapiens) (UniProt Q59H18); conditions: Compound concentration 1000.0 nM
[22] = molecular target: Atypical kinase COQ8B, mitochondrial (Homo sapiens) (UniProt Q96D53); conditions: Compound concentration 1000.0 nM
[23] = molecular target: Mitogen-activated protein kinase 8 (Homo sapiens) (UniProt P45983); conditions: Compound concentration 1000.0 nM
[24] = test system: Receptor-type tyrosine-protein kinase FLT3 (Homo sapiens), P36888 [D835H]; conditions: Compound concentration 1000.0 nM
[25] = molecular target: Inhibitor of nuclear factor kappa-B kinase subunit beta (Homo sapiens) (UniProt O14920); conditions: Compound concentration 1000.0 nM
[26] = molecular target: SRSF protein kinase 3 (Homo sapiens) (UniProt Q9UPE1); conditions: Compound concentration 1000.0 nM
[27] = molecular target: Serine/threonine-protein kinase Nek1 (Homo sapiens) (UniProt Q96PY6); conditions: Compound concentration 1000.0 nM
[28] = molecular target: Serine/threonine-protein kinase 33 (Homo sapiens) (UniProt Q9BYT3); conditions: Compound concentration 1000.0 nM
[29] = molecular target: Homeodomain-interacting protein kinase 2 (Homo sapiens) (UniProt Q9H2X6); conditions: Compound concentration 1000.0 nM
[30] = molecular target: Beta-1 adrenergic receptor (Homo sapiens) (UniProt P08588); conditions: Compound concentration 10.0 uM
[31] = molecular target: Rho-associated protein kinase 2 (Homo sapiens) (UniProt O75116); conditions: Compound concentration 1000.0 nM
[32] = molecular target: Ankyrin repeat and protein kinase domain-containing protein 1 (Homo sapiens) (UniProt Q8NFD2); conditions: Compound concentration 1000.0 nM
[33] = molecular target: Dual specificity mitogen-activated protein kinase kinase 4 (Homo sapiens) (UniProt P45985); conditions: Compound concentration 1000.0 nM
[34] = molecular target: Receptor-type tyrosine-protein kinase FLT3 (Homo sapiens) (UniProt P36888); conditions: Compound concentration 1000.0 nM
[35] = test system: Epidermal growth factor receptor (Homo sapiens), P00533 [UNDEFINED MUTATION]; conditions: Compound concentration 1000.0 nM
[36] = test system: Tyrosine-protein kinase ABL1 (Homo sapiens), P00519 [T315I]; conditions: Compound concentration 1000.0 nM
[37] = molecular target: Non-receptor tyrosine-protein kinase TYK2 (Homo sapiens) (UniProt P29597); conditions: Compound concentration 1000.0 nM
[38] = molecular target: Serine/threonine-protein kinase Nek5 (Homo sapiens) (UniProt Q6P3R8); conditions: Compound concentration 1000.0 nM
[39] = molecular target: Mitogen-activated protein kinase kinase kinase 13 (Homo sapiens) (UniProt O43283); conditions: Compound concentration 1000.0 nM
[40] = molecular target: Serine/threonine-protein kinase MRCK gamma (Homo sapiens) (UniProt Q6DT37); conditions: Compound concentration 1000.0 nM
[41] = molecular target: Mitogen-activated protein kinase kinase kinase 19 (Homo sapiens) (UniProt Q56UN5); conditions: Compound concentration 1000.0 nM
[42] = molecular target: Tyrosine-protein kinase JAK1 (Homo sapiens) (UniProt P23458); conditions: Compound concentration 1000.0 nM
[43] = molecular target: Cyclin-dependent kinase 9 (Homo sapiens) (UniProt P50750); conditions: Compound concentration 1000.0 nM
[44] = molecular target: Mitogen-activated protein kinase 1 (Homo sapiens) (UniProt P28482); conditions: Compound concentration 1000.0 nM
[45] = molecular target: Serine/threonine-protein kinase BRSK1 (Homo sapiens) (UniProt Q8TDC3); conditions: Compound concentration 1000.0 nM

Sequence of Serine/threonine-protein kinase MRCK beta (Homo sapiens) (Q9Y5S2 whole entry): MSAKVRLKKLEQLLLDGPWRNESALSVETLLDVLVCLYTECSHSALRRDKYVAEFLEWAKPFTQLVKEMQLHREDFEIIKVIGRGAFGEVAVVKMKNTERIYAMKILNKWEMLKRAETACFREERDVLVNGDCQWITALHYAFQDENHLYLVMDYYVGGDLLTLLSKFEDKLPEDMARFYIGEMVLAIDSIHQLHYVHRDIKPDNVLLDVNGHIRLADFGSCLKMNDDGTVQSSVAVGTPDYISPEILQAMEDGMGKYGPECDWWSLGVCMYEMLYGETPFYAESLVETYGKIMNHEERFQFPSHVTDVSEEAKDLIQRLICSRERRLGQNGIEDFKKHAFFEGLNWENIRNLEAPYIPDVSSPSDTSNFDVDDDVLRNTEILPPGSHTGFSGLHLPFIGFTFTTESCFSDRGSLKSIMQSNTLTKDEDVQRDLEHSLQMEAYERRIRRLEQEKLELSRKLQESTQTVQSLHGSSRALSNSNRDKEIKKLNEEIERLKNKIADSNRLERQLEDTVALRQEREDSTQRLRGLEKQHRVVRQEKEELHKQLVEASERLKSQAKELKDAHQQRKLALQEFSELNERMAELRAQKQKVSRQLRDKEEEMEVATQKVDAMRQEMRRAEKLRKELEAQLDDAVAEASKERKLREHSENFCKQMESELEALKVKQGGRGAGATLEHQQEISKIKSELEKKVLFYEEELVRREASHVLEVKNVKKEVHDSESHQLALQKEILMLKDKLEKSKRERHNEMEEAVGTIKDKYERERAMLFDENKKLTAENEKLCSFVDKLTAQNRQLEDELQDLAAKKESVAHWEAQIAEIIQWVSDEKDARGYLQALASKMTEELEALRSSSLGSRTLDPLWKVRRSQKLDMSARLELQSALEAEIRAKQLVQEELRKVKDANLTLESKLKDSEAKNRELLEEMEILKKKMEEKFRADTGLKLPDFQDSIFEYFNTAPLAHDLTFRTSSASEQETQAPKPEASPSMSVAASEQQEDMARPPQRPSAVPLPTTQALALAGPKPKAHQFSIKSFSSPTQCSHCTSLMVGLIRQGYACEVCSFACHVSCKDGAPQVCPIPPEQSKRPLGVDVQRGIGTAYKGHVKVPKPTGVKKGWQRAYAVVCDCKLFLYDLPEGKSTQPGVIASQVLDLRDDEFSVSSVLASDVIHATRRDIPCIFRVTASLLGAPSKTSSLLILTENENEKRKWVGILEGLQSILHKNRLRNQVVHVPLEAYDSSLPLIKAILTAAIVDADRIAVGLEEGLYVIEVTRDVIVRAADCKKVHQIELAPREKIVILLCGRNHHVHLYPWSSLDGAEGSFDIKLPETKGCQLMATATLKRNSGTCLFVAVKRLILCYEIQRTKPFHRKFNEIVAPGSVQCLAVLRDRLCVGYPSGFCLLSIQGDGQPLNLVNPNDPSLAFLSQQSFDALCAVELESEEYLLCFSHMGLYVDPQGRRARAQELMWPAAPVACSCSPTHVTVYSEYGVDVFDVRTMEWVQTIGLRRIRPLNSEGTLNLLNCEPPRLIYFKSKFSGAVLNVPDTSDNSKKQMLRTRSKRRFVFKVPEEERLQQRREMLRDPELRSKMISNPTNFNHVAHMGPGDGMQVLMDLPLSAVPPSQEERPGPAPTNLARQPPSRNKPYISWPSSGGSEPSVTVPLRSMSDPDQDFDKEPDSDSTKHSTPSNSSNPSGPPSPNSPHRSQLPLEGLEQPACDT
Sequence of SRSF protein kinase 3 (Homo sapiens) (Q9UPE1 whole entry): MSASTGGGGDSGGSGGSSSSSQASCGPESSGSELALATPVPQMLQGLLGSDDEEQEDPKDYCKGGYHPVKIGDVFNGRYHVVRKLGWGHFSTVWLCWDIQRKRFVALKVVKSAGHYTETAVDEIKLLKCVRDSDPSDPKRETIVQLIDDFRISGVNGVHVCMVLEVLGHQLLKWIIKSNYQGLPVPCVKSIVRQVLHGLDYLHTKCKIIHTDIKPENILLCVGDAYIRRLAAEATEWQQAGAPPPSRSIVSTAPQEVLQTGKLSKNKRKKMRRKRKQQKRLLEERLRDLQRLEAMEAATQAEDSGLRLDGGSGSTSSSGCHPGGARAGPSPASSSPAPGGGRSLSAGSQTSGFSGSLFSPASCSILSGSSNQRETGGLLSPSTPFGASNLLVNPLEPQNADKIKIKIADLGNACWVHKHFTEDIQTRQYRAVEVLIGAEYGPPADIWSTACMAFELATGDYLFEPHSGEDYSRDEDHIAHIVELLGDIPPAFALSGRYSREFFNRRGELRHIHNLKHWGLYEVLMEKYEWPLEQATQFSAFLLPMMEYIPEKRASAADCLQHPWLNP
Sequence of Activin receptor type-1-like (Homo sapiens) (P37023 whole entry): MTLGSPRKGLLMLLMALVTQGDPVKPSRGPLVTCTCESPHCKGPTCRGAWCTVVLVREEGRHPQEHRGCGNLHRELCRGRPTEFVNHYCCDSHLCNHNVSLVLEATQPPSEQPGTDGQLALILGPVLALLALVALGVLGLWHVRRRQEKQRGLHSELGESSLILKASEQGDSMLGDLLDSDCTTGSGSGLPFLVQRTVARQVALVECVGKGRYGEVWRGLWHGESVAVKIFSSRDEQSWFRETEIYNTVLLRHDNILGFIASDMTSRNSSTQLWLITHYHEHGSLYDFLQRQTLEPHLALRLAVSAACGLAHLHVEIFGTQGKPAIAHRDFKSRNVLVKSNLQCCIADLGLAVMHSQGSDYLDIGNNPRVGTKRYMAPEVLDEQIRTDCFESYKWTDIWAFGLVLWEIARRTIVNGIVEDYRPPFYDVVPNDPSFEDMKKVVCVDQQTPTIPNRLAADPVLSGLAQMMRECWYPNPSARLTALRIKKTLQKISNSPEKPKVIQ
Sequence of RAF proto-oncogene serine/threonine-protein kinase (Homo sapiens) (P04049 whole entry): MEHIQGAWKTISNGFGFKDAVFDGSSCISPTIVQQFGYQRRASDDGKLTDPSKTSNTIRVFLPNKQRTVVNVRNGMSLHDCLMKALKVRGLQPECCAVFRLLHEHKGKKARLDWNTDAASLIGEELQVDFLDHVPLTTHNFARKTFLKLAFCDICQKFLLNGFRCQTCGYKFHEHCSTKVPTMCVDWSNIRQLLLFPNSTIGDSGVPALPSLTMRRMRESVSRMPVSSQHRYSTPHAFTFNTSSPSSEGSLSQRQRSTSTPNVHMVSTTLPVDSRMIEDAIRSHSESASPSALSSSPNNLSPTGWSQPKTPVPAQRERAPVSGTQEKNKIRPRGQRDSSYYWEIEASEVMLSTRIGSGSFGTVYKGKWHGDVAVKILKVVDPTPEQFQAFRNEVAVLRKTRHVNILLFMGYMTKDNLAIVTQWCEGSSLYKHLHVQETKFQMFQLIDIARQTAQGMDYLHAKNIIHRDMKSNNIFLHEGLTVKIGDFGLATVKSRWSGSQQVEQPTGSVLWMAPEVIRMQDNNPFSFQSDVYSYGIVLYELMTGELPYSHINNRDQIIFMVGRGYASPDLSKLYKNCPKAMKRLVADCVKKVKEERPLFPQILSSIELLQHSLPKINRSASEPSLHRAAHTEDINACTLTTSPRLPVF
Sequence of Myosin light chain kinase 2, skeletal/cardiac muscle (Homo sapiens) (Q9H1R3 whole entry, the tested form may be a part): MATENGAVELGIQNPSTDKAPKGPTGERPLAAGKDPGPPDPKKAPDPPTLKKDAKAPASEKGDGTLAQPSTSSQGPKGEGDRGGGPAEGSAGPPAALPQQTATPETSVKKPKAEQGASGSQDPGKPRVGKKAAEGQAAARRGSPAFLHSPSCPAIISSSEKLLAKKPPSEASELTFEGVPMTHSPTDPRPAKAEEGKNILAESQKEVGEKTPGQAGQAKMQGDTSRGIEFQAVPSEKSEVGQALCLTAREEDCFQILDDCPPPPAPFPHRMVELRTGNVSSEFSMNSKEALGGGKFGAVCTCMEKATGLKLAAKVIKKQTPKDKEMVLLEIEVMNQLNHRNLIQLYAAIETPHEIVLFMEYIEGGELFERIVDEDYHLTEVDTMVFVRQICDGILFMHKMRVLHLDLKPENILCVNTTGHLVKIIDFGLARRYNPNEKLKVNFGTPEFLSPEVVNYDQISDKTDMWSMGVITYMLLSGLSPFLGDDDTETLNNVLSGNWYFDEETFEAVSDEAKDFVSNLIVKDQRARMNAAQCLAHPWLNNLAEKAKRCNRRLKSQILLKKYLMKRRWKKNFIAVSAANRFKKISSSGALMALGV
Sequence of Mitogen-activated protein kinase 1 (Homo sapiens) (P28482 whole entry): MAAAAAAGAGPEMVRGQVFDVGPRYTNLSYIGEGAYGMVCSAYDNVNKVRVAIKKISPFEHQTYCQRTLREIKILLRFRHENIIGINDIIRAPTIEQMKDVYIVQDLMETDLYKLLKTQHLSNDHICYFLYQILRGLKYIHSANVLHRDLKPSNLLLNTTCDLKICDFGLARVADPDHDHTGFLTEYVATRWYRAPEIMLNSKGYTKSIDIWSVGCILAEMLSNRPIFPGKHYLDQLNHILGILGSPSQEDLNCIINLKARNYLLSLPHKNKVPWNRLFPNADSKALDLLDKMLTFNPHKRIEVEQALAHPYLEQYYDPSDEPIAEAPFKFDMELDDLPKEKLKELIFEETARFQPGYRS
Sequence of Dual specificity mitogen-activated protein kinase kinase 4 (Homo sapiens) (P45985 whole entry): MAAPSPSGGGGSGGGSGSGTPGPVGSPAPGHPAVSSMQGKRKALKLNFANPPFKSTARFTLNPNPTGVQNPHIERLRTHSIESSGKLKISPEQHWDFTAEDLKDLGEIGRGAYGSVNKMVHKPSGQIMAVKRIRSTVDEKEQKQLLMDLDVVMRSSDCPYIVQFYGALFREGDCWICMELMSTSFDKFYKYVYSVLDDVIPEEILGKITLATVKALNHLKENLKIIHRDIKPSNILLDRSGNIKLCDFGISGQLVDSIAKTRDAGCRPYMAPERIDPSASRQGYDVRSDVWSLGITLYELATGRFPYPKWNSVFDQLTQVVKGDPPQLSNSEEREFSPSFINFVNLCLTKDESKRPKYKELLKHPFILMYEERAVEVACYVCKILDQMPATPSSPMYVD

Cc1c(NC(=O)c2cc(C(N)=O)nc3cc(F)ccc23)c(C(F)(F)F)nn1Cc1ccc(C(C)(C)C)cc1 [BAY-588]
inactive: residual activity [1] 88% | residual activity [2] 98% | residual activity [3] 100% | inhibition [4] 2.11% | residual activity [5] 97% | residual activity [6] 100% | residual activity [7] 79% | residual activity [8] 88% | residual activity [9] 96% | residual activity [10] 100% | residual activity [11] 94% | residual activity [12] 94% | inhibition [13] -0.431% | residual activity [14] 94% | residual activity [15] 100% | residual activity [16] 100% | residual activity [17] 85% | residual activity [18] 87% | residual activity [19] 84% | residual activity [20] 100% | residual activity [21] 81% | residual activity [22] 70% | residual activity [23] 100% | residual activity [24] 79% | residual activity [25] 100% | residual activity [26] 100% | residual activity [27] 97% | residual activity [28] 96% | residual activity [29] 100% | inhibition [30] 21.2% | residual activity [31] 100% | residual activity [32] 100% | residual activity [33] 100% | residual activity [34] 100% | residual activity [35] 77% | residual activity [36] 85% | residual activity [37] 100% | residual activity [38] 100% | residual activity [39] 100% | residual activity [40] 91% | residual activity [41] 85% | residual activity [42] 100% | residual activity [43] 100% | residual activity [44] 71% | residual activity [45] 100%

Cc1c(NC(=O)c2cc(C(N)=O)nc3cc(F)ccc23)c(C(F)(F)F)nn1Cc1ccc(C#N)cc1 [BAY-876]
inactive: residual activity [1] 86% | residual activity [2] 95% | residual activity [3] 89% | inhibition [4] -0.745% | residual activity [5] 75% | residual activity [6] 100% | residual activity [7] 95% | residual activity [8] 91% | residual activity [9] 100% | residual activity [10] 84% | residual activity [11] 92% | residual activity [12] 92% | inhibition [13] -0.383% | residual activity [14] 100% | residual activity [15] 92% | residual activity [16] 100% | residual activity [17] 88% | residual activity [18] 90% | residual activity [19] 95% | residual activity [20] 62% | residual activity [21] 100% | residual activity [22] 80% | residual activity [23] 80% | residual activity [24] 100% | residual activity [25] 92% | residual activity [26] 100% | residual activity [27] 95% | residual activity [28] 80% | residual activity [29] 83% | inhibition [30] 28.5% | residual activity [31] 99% | residual activity [32] 80% | residual activity [33] 86% | residual activity [34] 83% | residual activity [35] 83% | residual activity [36] 92% | residual activity [37] 77% | residual activity [38] 100% | residual activity [39] 84% | residual activity [40] 91% | residual activity [41] 72% | residual activity [42] 100% | residual activity [43] 86% | residual activity [44] 100% | residual activity [45] 100%
